Experimental data published in patent US4192871A, “Chemical compounds” (Glaxo Laboratories Limited, priority 1976, dated 1980).
Structures can show the parent of a compound that is named as a salt.

Key:
[1] = anaesthetic activity tests (intravenous administration); assay type: in vivo; details: compound and salts
Description: In the tests we have carried out, the compounds of the invention have been shown generally to be good anaesthetics, usually giving instantaneous induction of anaesthesia when administered intravenously. […] The compounds of the invention are of use for inducing anaesthesia which is to be maintained for example by an inhalation anaesthetic, such as ether, halothane, nitrous oxide or trichloroethylene. The compounds may also be capable of maintaining anaesthesia to a sufficient degree to enable surgical operations to be conducted without the aid of an inhalation anaesthetic, the anaesthesia being maintained if necessary by repeated or continuous administration. The compounds may have other desirable central nervous system depressant activities, for example they may be of use as sedatives.

[2] = dissolution of the 11β-aminoester salts in aqueous acid (Table 5 and Examples 101, 225-229); assay type: physicochemical; details: for concentration of aqueous solution of the citrate: citric acid monohydrate in water, filtered solution
Procedure, shortened: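 11β-Aminoester free base combined with 1 molar part of acid (citric acid as monohydrate) in water, with extra acid or prior ethanol co-evaporation in some methods. Solution made up to set weight, undissolved base collected and weighed to calculate dissolved amount. Solution pH measured.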

pH of the salt solutions = assay type: physicochemical
Procedure, shortened: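 Aminoester free base mixed with 1 molar part acid in water, stirred or shaken, with extra acid or ethanol evaporation in some methods, then made up with water to set weight. Undissolved base collected and weighed to calculate dissolved base; solution membrane-filtered and pH measured.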

[3] = solution of the salt in saline, before any adjustment
[4] = aqueous solution of the salt, Table 5
[5] = aqueous solution of the citrate, filtered, 9.5-10 mg/ml

Q: With CC(=O)[C@H]1CC[C@H]2[C@@H]3CC[C@H]4C[C@H](O)CC[C@]4(C)[C@H]3[C@@H](OC(=O)CNCC(C)(C)C)C[C@]12C [Example 34, 11β-N-2',2'-dimethylpropylaminoacetoxy-3α-hydroxy-5α-pregnan-20-one] as the compound, how does the “activity shown in our tests (preference grade)” value (shortened to “activity shown in our tests”) [1] read?
A: Its value is “particularly preferred on account of the activity shown in our tests”.

Q: Which “activity shown in our tests” value ([1]; listed as Compound No. 6) does the source give for CCO[C@H]1C[C@@]2(C)[C@@H](CC[C@@H]3[C@@H]2[C@@H](OC(=O)CN(CC)CC)C[C@]2(C)[C@@H](C(C)=O)CC[C@@H]32)C[C@@H]1O [Example 101, 2β-Ethoxy-11β-diethylaminoacetoxy-3α-hydroxy-5α-pregnan-20-one] here?
A: Its value is “especially preferred”.

Q: With CCCCN(C)CC(=O)O[C@H]1C[C@]2(C)[C@@H](C(C)=O)CC[C@H]2[C@@H]2CC[C@H]3C[C@H](O)CC[C@]3(C)[C@H]21 [Example 111, 11β-(N-Butyl-N-methylaminoacetoxy)-3α-hydroxy-5α-pregnan-20-one] as the compound, how does the “activity shown in our tests” value ([1]; listed as Compound No. 10) read?
A: Its value is “especially preferred”.

Q: With CCCCN(CC)CC(=O)O[C@H]1C[C@]2(C)[C@@H](C(C)=O)CC[C@H]2[C@@H]2CC[C@H]3C[C@H](O)CC[C@]3(C)[C@H]21 [Example 115, 11β-(N-Butyl-N-ethylaminoacetoxy)-3α-hydroxy-5α-pregnan-20-one] as the compound, how does the “activity shown in our tests” value ([1]; listed as Compound No. 12) read?
A: The value was “especially preferred”.

Q: What does the source list for CCCN(CCC)CC(=O)O[C@H]1C[C@]2(C)[C@@H](C(C)=O)CC[C@H]2[C@@H]2CC[C@H]3C[C@H](O)CC[C@]3(C)[C@H]21 [Example 218]?
A: Dissolved aminoester ([2]; method C, 0.9% w/v saline in place of water, WT. of solution 95 g): 951 mg; pH (pH of the salt solutions; [3]): 3.38

Q: With CCCN(CCC)CC(=O)O[C@H]1C[C@]2(C)[C@@H](C(C)=O)CC[C@H]2[C@@H]2CC[C@H]3C[C@H](O)CC[C@]3(C)[C@H]21 [Example 219] as the compound, how does the Dissolved aminoester ([2]; method D: 1 molar part acid, undissolved material weighed, WT. of solution 10 g, except Ex. 136: 8.95, 140: 9.52, 165 and 167: 10.1, 190 and 198: 9.8, 191: 8.9, 194: 6.6, 204: 10.09, 219: 10.6 g) read?
A: The Dissolved aminoester was 106 mg.

Q: What about the pH (pH of the salt solutions; [4]) of the same compound?
A: The pH was 3.77.

Q: For CCCCN(CC)CC(=O)O[C@H]1C[C@]2(C)[C@@H](C(C)=O)CC[C@H]2[C@@H]2CC[C@H]3C[C@H](O)CC[C@]3(C)[C@H]21 [Example 220], which Dissolved aminoester ([2]; method E: as C with further acid, WT. of solution Ex. 160: 6.12, 161: 7.8, 203: 12.7, 212: 12.125, 220: 10 g) is on record?
A: Its Dissolved aminoester is 100 mg.

Q: What about the pH (pH of the salt solutions; [4]) of the same compound?
A: The pH was 3.6.

Q: Which results are given for CCCCN(CC)CC(=O)O[C@H]1C[C@]2(C)[C@@H](C(C)=O)CC[C@H]2[C@@H]2CC[C@H]3C[C@H](O)CC[C@]3(C)[C@H]21 [Example 221]?
A: Dissolved aminoester ([2]; method A: clear solution, 1 molar part acid, made up with water to WT. of solution 10 g, except Ex. 121 and 150: 12, 123: 12.3, 124: 7.5, 129: 10.3, 135 and 139: 8.95, 164: 10.35, 170: 10.4, 181: 10.04, 187: 9.5, 210: 10.2, 221: 15 g): 150 mg; pH (pH of the salt solutions; [4]): 3.52

Q: With CCCCN(CC)CC(=O)O[C@H]1C[C@]2(C)[C@@H](C(C)=O)CC[C@H]2[C@@H]2CC[C@H]3C[C@H](O)CC[C@]3(C)[C@H]21.O=C(O)CC(O)(CC(=O)O)C(=O)O [Example 222, 11β-(N-Butyl-N-ethylaminoacetoxy)-3α-hydroxy-5α-pregnan-20-one, citrate salt] as the compound, how does the Dissolved aminoester ([2]; method A, 0.9% w/v saline in place of water, WT. of solution Ex. 122: 37.5 g, 222: 50 g) read?
A: The Dissolved aminoester was 500 mg.

Q: What about the pH (pH of the salt solutions; solution in 0.9% w/v saline, pH adjusted with sodium hydroxide solution, citrate salt) of the same compound?
A: The pH was 3.97.

Q: What about the pH (pH of the salt solutions; solution in 0.9% w/v saline, pH adjusted with sodium hydroxide solution, listed as Example 224, citrate salt) of the same compound?
A: The pH was 4.00.

Q: And the pH (pH of the salt solutions; [3])?
A: The pH was 3.62.

Q: Which results are given for CCO[C@H]1C[C@@]2(C)[C@@H](CC[C@@H]3[C@@H]2[C@@H](OC(=O)CN(CC)CC)C[C@]2(C)[C@@H](C(C)=O)CCC[C@@H]32)C[C@@H]1O [Example 225 citrate salt]?
A: concentration of aqueous solution of the citrate [2]: 9750 µg/mL; pH (pH of the salt solutions; [5]): 3.66

Q: With CCCN(CCC)CC(=O)O[C@H]1C[C@]2(C)[C@@H](C(C)=O)CCC[C@H]2[C@@H]2CC[C@H]3C[C@H](O)[C@@H](OCC)C[C@]3(C)[C@H]21 [Example 226 citrate salt] as the compound, how does the “concentration of aqueous solution of the citrate” value (shortened to “concentration”) [2] read?
A: Its value is 9500 µg/mL.

Q: And the pH (pH of the salt solutions; [5])?
A: The pH was 2.85.

Q: Which “concentration” value [2] does the source give for CCCN(CCC)CC(=O)O[C@H]1C[C@]2(C)[C@@H](C(C)=O)CC[C@H]2[C@@H]2CC[C@H]3C[C@H](O)CC[C@@H]3[C@H]21 [Example 227 citrate salt] here?
A: The value was 10000 µg/mL.

Q: And the pH (pH of the salt solutions; [5])?
A: Its pH is 3.0.

Q: Which “concentration” value [2] does the source give for CCCCN(C)CC(=O)O[C@H]1C[C@]2(C)[C@@H](C(C)=O)CC[C@H]2[C@@H]2CC[C@H]3C[C@H](O)CC[C@@H]3[C@H]21 [Example 228 citrate salt] here?
A: Its value is 10000 µg/mL.

Q: And the pH (pH of the salt solutions; [5])?
A: The pH was 3.77.

Q: Which “concentration” value [2] does the source give for CC(=O)[C@H]1CC[C@H]2[C@@H]3CC[C@H]4C[C@H](O)CC[C@@H]4[C@H]3[C@@H](OC(=O)CN3CCC(C)CC3)C[C@]12C [Example 229 citrate salt] here?
A: The value was 10000 µg/mL.

Q: And the pH (pH of the salt solutions; [5])?
A: Its pH is 3.73.

Q: With CCN(CC(=O)O[C@H]1C[C@]2(C)[C@@H](C(C)=O)CC[C@H]2[C@@H]2CC[C@H]3C[C@H](O)CC[C@]3(C)[C@H]21)C(C)CC(C)C (stereo partly drawn) [compound 23, 11β-N-1',3'-dimethylbutyl-N-ethylaminoacetoxy-3α-hydroxy-5α-pregnan-20-one] as the compound, how does the “activity shown in our tests” value [1] read?
A: Its value is “particularly preferred on account of the activity shown in our tests”.

Q: For CCO[C@H]1C[C@@]2(C)[C@@H](CC[C@@H]3[C@@H]2[C@@H](OC(=O)CNC(C)CC(C)C)C[C@]2(C)[C@@H](C(C)=O)CC[C@@H]32)C[C@@H]1O (stereo partly drawn) [compound 29, 2β-ethoxy-3α-hydroxy-11β-N-1',3'-dimethylbutylaminoacetoxy-5α-pregnan-20-one], which “activity shown in our tests” value [1] is on record?
A: Its value is “particularly preferred on account of the activity shown in our tests”.
